{"source": "patent US6410685B1", "about": "“Antistress agents and functional foods” (Calpis Co., Ltd., priority 1997, dated 2002)", "test_system": "Wister rats exposed to cold stress", "assay": "Blood pressure by tail-cuff method in rats exposed to cold stress", "assay_type": "in vivo, rat", "details": "Example 5, day 10, 3 mg/kg body weight of single tripeptide oral", "description": "24 male Wister rats (body weight about 300 g) were preliminarily fed for one week. During the preliminary feeding period and the experimental period, the rats were restrictively fed with commercial diet (trade name “CE-2” manufactured by NIHON CREA CO.), and allowed to take water ad libitum.\nAfter the preliminary feeding period, the rats were divided into three groups (eight rats each), namely, (1) the group not exposed to stress and given saline, (2) the group exposed to stress and given saline, and (3) the group exposed to stress, and given VPP and IPP. The animals of groups (2) and (3) were exposed to stress for 9 days by putting them in a cold room (4° C.) for 4 hours per one day.\nOn the day 10, rats of groups (1) and (2) were given 1 ml of saline, and rats of group (3) were given 1 ml of saline containing 3 mg/kg body weight each of IPP and VPP synthesized in Example 3, by forcible administration into stomach via an oral sonde. After the administration, the rats of groups (2) and (3) were exposed to cold stress for 4 hours. Two hours after finishing the stress loading, blood pressure of the rats in each group was measured by tail-cuff method using a non-warming, non-invasive rat sphygmomanometer (Type PE-300, manufactured by CSI CO.).\nAfter the preliminary feeding period, the rats were divided into three groups (eight rats each), namely, (1) the group given saline, (2) the group given VPP, and (3) the group given IPP. The rats of groups (1) to (3) were exposed to stress for 9 days by, as in Example 4, putting them in a cold room (4° C.) for 4 hours per one day.\nOn the day 10, rats of group (1) were given 1 ml of saline, and rats of group (2) and (3) were given 1 ml of saline containing 3 mg/kg body weight of IPP or 3 mg/kg body weight of VPP, respectively, synthesized in Example 3, by forcible administration into stomach via an oral sonde. After the administration, the rats of groups (1) to (3) were exposed to cold stress for 4 hours, and blood pressure was measured as in Example 4.\nThe test was carried out in the same way as in Example 5 except that the group (1) rats were given 2 ml of saline, and the rats in group (2) were given 5 ml/kg body weight of the fermented milk obtained in Example 1, and the rats in group (3) were given 2 ml of saline containing 150 mg/kg of the purified tripeptide fraction powders obtained in Example 2, respectively. After the administration of the samples and exposure to stress, the blood pressure of each rat was measured.", "note": "Marks after values point to notes of the source that are not given here."}
{"substance": "Ile-Pro-Pro [IPP]", "values": [{"measurement": "Diastolic Blood Pressure", "result": "102* mmHg"}, {"measurement": "Systolic Blood Pressure", "result": "130* mmHg"}]}
{"substance": "Val-Pro-Pro [VPP]", "values": [{"measurement": "Diastolic Blood Pressure", "result": "101* mmHg"}, {"measurement": "Systolic Blood Pressure", "result": "131* mmHg"}]}
